In the NIST ThermoML archive (doi:10.1021/acs.jced.8b00537) one finds speed of sound, mass density and viscosity data, which are given here for five compounds.

The structures appear in SMILES notation. Numbers after ± are expanded uncertainties.

As a reminder, the speed of sound is the propagation velocity of pressure waves in the medium. By mass density is commonly meant mass per unit of volume. For orientation: viscosity means the resistance of a fluid to flow.

The conditions of the first data set: 318.15 K; 100 kPa; Liquid; Frequency=3 MHz; Single path-length method.
In the case of `CC[S+](CC)CC.O=S(=O)([N-]S(=O)(=O)C(F)(F)F)C(F)(F)F` [triethylsulfonium bis((trifluoromethyl)sulfonyl)imide], the speed of sound came out at 1203.1 ± 6.1 m/s.

Still in this data set, the particulars now being: 318.15 K; 100 kPa; Liquid; Vibrating tube method.
As to `C=CCn1cc[n+](C)c1.O=S(=O)([N-]S(=O)(=O)C(F)(F)F)C(F)(F)F`, the mass density is on record as 1479.44 ± 3.2 kg/m3.
Turning to `CCCC[N+]1(C)CCCC1.O=S(=O)([N-]S(=O)(=O)C(F)(F)F)C(F)(F)F`, the mass density is 1376.66 ± 3.2 kg/m3.
As for `O=S(=O)([N-]S(=O)(=O)C(F)(F)F)C(F)(F)F.On1cc[n+](O)c1` [1,3-dihydroxyimidazolium bis(trifluoromethylsulfonyl)imide], the mass density was 1716.97 ± 4.2 kg/m3.
As to `CCCO` [propan-1-ol], the mass density stood at 783.27 ± 1.6 kg/m3.
Still for that read-out and setting: then `CC[S+](CC)CC.O=S(=O)([N-]S(=O)(=O)C(F)(F)F)C(F)(F)F` [triethylsulfonium bis((trifluoromethyl)sulfonyl)imide], with 1440.74 ± 2.9 kg/m3.

The data set is the same for the next values; noted with them: 323.15 K; 100 kPa; Liquid; Capillary tube (Ostwald / Ubbelohde) method.
Regarding `C=CCn1cc[n+](C)c1.O=S(=O)([N-]S(=O)(=O)C(F)(F)F)C(F)(F)F`, the viscosity came out at 15.19 ± 1.2 mPa·s.
As to `CCCC[N+]1(C)CCCC1.O=S(=O)([N-]S(=O)(=O)C(F)(F)F)C(F)(F)F`, the viscosity came to 28.98 ± 2.3 mPa·s.
Regarding `O=S(=O)([N-]S(=O)(=O)C(F)(F)F)C(F)(F)F.On1cc[n+](O)c1` [1,3-dihydroxyimidazolium bis(trifluoromethylsulfonyl)imide], the viscosity is 48.29 ± 3.9 mPa·s.
Still for that read-out and setting: then `CCCO` [propan-1-ol], with 1.09 ± 0.087 mPa·s; and `CC[S+](CC)CC.O=S(=O)([N-]S(=O)(=O)C(F)(F)F)C(F)(F)F` [triethylsulfonium bis((trifluoromethyl)sulfonyl)imide], with 14.31 ± 1.1 mPa·s.

Still in this data set, the particulars now being: 323.15 K; 100 kPa; Liquid; Frequency=3 MHz; Single path-length method.
As for `C=CCn1cc[n+](C)c1.O=S(=O)([N-]S(=O)(=O)C(F)(F)F)C(F)(F)F`, the speed of sound turned out to be 1185.2 ± 6.2 m/s.
The same measure, in the same setting: then `CCCC[N+]1(C)CCCC1.O=S(=O)([N-]S(=O)(=O)C(F)(F)F)C(F)(F)F`, with 1214.6 ± 6.3 m/s; and `O=S(=O)([N-]S(=O)(=O)C(F)(F)F)C(F)(F)F.On1cc[n+](O)c1` [1,3-dihydroxyimidazolium bis(trifluoromethylsulfonyl)imide], with 1141.6 ± 6.3 m/s; and `CCCO` [propan-1-ol], with 1121.9 ± 6 m/s.
For the compound `CC[S+](CC)CC.O=S(=O)([N-]S(=O)(=O)C(F)(F)F)C(F)(F)F` [triethylsulfonium bis((trifluoromethyl)sulfonyl)imide], the speed of sound worked out at 1193.7 ± 6.1 m/s.

Staying with this data set, now noted: 323.15 K; 100 kPa; Liquid; Vibrating tube method.
Consider `C=CCn1cc[n+](C)c1.O=S(=O)([N-]S(=O)(=O)C(F)(F)F)C(F)(F)F`, for which the mass density is reported as 1474.45 ± 3.1 kg/m3.
With `CCCC[N+]1(C)CCCC1.O=S(=O)([N-]S(=O)(=O)C(F)(F)F)C(F)(F)F`, the mass density came to 1372.3 ± 3.1 kg/m3.
As for `O=S(=O)([N-]S(=O)(=O)C(F)(F)F)C(F)(F)F.On1cc[n+](O)c1` [1,3-dihydroxyimidazolium bis(trifluoromethylsulfonyl)imide], the mass density is recorded as 1711.19 ± 4.2 kg/m3.
Consider `CCCO` [propan-1-ol], for which the mass density is 779.05 ± 1.6 kg/m3.
Turning to `CC[S+](CC)CC.O=S(=O)([N-]S(=O)(=O)C(F)(F)F)C(F)(F)F` [triethylsulfonium bis((trifluoromethyl)sulfonyl)imide], the mass density is 1435.99 ± 2.9 kg/m3.

Still in this data set, the particulars now being: 328.15 K; 100 kPa; Liquid; Capillary tube (Ostwald / Ubbelohde) method.
Consider `C=CCn1cc[n+](C)c1.O=S(=O)([N-]S(=O)(=O)C(F)(F)F)C(F)(F)F`, for which the viscosity came out at 13.23 ± 1.1 mPa·s.
Take `CCCC[N+]1(C)CCCC1.O=S(=O)([N-]S(=O)(=O)C(F)(F)F)C(F)(F)F`: the viscosity worked out at 24.76 ± 2 mPa·s.
In the case of `O=S(=O)([N-]S(=O)(=O)C(F)(F)F)C(F)(F)F.On1cc[n+](O)c1` [1,3-dihydroxyimidazolium bis(trifluoromethylsulfonyl)imide], the viscosity turned out to be 39.57 ± 3.2 mPa·s.
As to `CCCO` [propan-1-ol], the viscosity is 0.985 ± 0.079 mPa·s.
Take `CC[S+](CC)CC.O=S(=O)([N-]S(=O)(=O)C(F)(F)F)C(F)(F)F` [triethylsulfonium bis((trifluoromethyl)sulfonyl)imide]: the viscosity was determined as 12.5 ± 1 mPa·s.

The same data set, now with this note: 328.15 K; 100 kPa; Liquid; Frequency=3 MHz; Single path-length method.
For the compound `C=CCn1cc[n+](C)c1.O=S(=O)([N-]S(=O)(=O)C(F)(F)F)C(F)(F)F`, the speed of sound is 1174.7 ± 6.2 m/s.
Regarding `CCCC[N+]1(C)CCCC1.O=S(=O)([N-]S(=O)(=O)C(F)(F)F)C(F)(F)F`, the speed of sound was 1204.1 ± 6.3 m/s.
The same measure, in the same setting: then `O=S(=O)([N-]S(=O)(=O)C(F)(F)F)C(F)(F)F.On1cc[n+](O)c1` [1,3-dihydroxyimidazolium bis(trifluoromethylsulfonyl)imide], with 1131.1 ± 6.3 m/s; and `CCCO` [propan-1-ol], with 1105.2 ± 6 m/s; and `CC[S+](CC)CC.O=S(=O)([N-]S(=O)(=O)C(F)(F)F)C(F)(F)F` [triethylsulfonium bis((trifluoromethyl)sulfonyl)imide], with 1184.7 ± 6.1 m/s.

Still in this data set, the particulars now being: 328.15 K; 100 kPa; Liquid; Vibrating tube method.
Turning to `C=CCn1cc[n+](C)c1.O=S(=O)([N-]S(=O)(=O)C(F)(F)F)C(F)(F)F`, the mass density is on record as 1469.5 ± 3.1 kg/m3.
For the compound `CCCC[N+]1(C)CCCC1.O=S(=O)([N-]S(=O)(=O)C(F)(F)F)C(F)(F)F`, the mass density stood at 1367.94 ± 3.1 kg/m3.
As to `O=S(=O)([N-]S(=O)(=O)C(F)(F)F)C(F)(F)F.On1cc[n+](O)c1` [1,3-dihydroxyimidazolium bis(trifluoromethylsulfonyl)imide], the mass density came to 1705.44 ± 4.2 kg/m3.
As for `CCCO` [propan-1-ol], the mass density was found to be 774.79 ± 1.6 kg/m3.
Regarding `CC[S+](CC)CC.O=S(=O)([N-]S(=O)(=O)C(F)(F)F)C(F)(F)F` [triethylsulfonium bis((trifluoromethyl)sulfonyl)imide], the mass density came out at 1431.27 ± 2.9 kg/m3.
